Values quoted from earlier work in PMC9610285 (Pharmaceutics, 2022).

Test system: MAO-B
Parameters: method as in earlier work
Settings: main metabolite of rasagiline; cited from earlier work

Structure (SMILES): NC1CCc2ccccc21 (stereo not shown) [S1-1-aminoindane]
- MAO-B inhibition: not a MAO-B inhibitor
